Experimental data published in the supplement of paper PMC10307832.

Columns and labels:
Assay in all cases: relative viability (nuclei count vs DMSO), 5 days (fraction); higher = more cells survive
Imatinib + Trametinib = compound: Cc1ccc(NC(=O)c2ccc(CN3CCN(C)CC3)cc2)cc1Nc1nccc(-c2cccnc2)n1 [Imatinib] + CC(=O)Nc1cccc(-n2c(=O)n(C3CC3)c(=O)c3c(Nc4ccc(I)cc4F)n(C)c(=O)c(C)c32)c1 [Trametinib] (partner 0.02 µM)
Method in brief: (§1)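 Lung cancer cell lines in 1536-well plates were dosed by pin tool the day after seeding, either with one drug alone or with a fixed anchor-drug dose plus five library-drug doses (not always all listed) in √10 steps. After 5 days, cells were fixed and their nuclei stained in one step (final 0.05% Triton X-100, 1% formaldehyde, 1 ug/ml Hoechst), then counted on 4× images. Relative viability is the nuclei count in treated wells divided by that in vehicle wells. Values are medians of duplicate plates.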

Imatinib + Pictilisib = compound: Cc1ccc(NC(=O)c2ccc(CN3CCN(C)CC3)cc2)cc1Nc1nccc(-c2cccnc2)n1 [Imatinib] + CS(=O)(=O)N1CCN(Cc2cc3nc(-c4cccc5[nH]ncc45)nc(N4CCOCC4)c3s2)CC1 [Pictilisib] (partner 1 µM)
Method in brief: as §1

Imatinib + Alpelisib = compound: Cc1ccc(NC(=O)c2ccc(CN3CCN(C)CC3)cc2)cc1Nc1nccc(-c2cccnc2)n1 [Imatinib] + Cc1nc(NC(=O)N2CCC[C@H]2C(N)=O)sc1-c1ccnc(C(C)(C)C(F)(F)F)c1 [Alpelisib] (partner 2 µM)
Method in brief: as §1

Imatinib + Dasatinib = compound: Cc1ccc(NC(=O)c2ccc(CN3CCN(C)CC3)cc2)cc1Nc1nccc(-c2cccnc2)n1 [Imatinib] + Cc1nc(Nc2ncc(C(=O)Nc3c(C)cccc3Cl)s2)cc(N2CCN(CCO)CC2)n1 [Dasatinib] (partner 0.075 µM)
Method in brief: as §1

Cell Line	relative viability (Imatinib + Trametinib; first compound 0.02 µM)	relative viability (Imatinib + Trametinib; first compound 0.06325 µM)	relative viability (Imatinib + Trametinib; first compound 0.2 µM)	relative viability (Imatinib + Trametinib; first compound 0.6325 µM)	relative viability (Imatinib + Trametinib; first compound 2 µM)	relative viability (Imatinib + Pictilisib; first compound 0.02 µM)	relative viability (Imatinib + Pictilisib; first compound 0.06325 µM)	relative viability (Imatinib + Pictilisib; first compound 0.2 µM)	relative viability (Imatinib + Pictilisib; first compound 0.6325 µM)	relative viability (Imatinib + Pictilisib; first compound 2 µM)	relative viability (Imatinib + Alpelisib; first compound 0.02 µM)	relative viability (Imatinib + Alpelisib; first compound 0.06325 µM)	relative viability (Imatinib + Alpelisib; first compound 0.2 µM)	relative viability (Imatinib + Alpelisib; first compound 0.6325 µM)	relative viability (Imatinib + Alpelisib; first compound 2 µM)	relative viability (Imatinib + Dasatinib; first compound 0.02 µM)	relative viability (Imatinib + Dasatinib; first compound 0.06325 µM)	relative viability (Imatinib + Dasatinib; first compound 0.2 µM)	relative viability (Imatinib + Dasatinib; first compound 0.6325 µM)	relative viability (Imatinib + Dasatinib; first compound 2 µM)
NCI-H520	0.775	0.531	0.669	0.674	0.8	0.348	0.362	0.305	0.289	0.306	0.645	1.15	1.07	0.842	0.912	0.158	0.213	0.206	0.186	0.169
NCI-H1993	0.45	0.482	0.622	0.447	0.584	–	0.861	0.805	0.997	0.924	–	0.792	0.533	0.621	0.534	0.678	0.564	0.573	0.522	0.521
H3255	0.589	–	0.635	0.616	0.609	0.493	0.488	0.507	0.447	0.426	0.815	–	0.747	0.645	0.618	0.443	0.346	0.351	0.361	0.258
NCI-H838	0.504	0.549	0.608	0.569	0.486	0.447	0.55	0.519	0.465	0.499	1.02	1.06	1.12	1.06	1.04	0.268	0.307	0.3	0.297	0.358
LXF-289	0.662	–	0.755	0.636	0.679	0.929	0.711	0.934	0.747	0.804	1.16	1.06	1.15	0.967	1.02	0.216	0.259	0.217	0.19	0.195
HCC-15	0.399	–	0.411	0.406	0.359	0.719	0.324	0.777	0.809	0.698	–	0.853	0.883	0.814	0.885	0.722	–	0.668	0.594	0.598
NCI-H1437	0.569	0.345	0.607	0.544	0.494	0.391	0.454	0.422	0.463	0.424	1.13	1.16	1.02	0.981	0.94	0.444	0.309	0.409	0.25	0.334
LK-2	0.783	0.61	0.919	–	0.87	0.639	–	0.581	0.488	0.572	1.33	–	1.23	1.18	1.19	0.258	0.266	0.282	0.276	0.15
201T	0.694	0.697	0.738	0.681	0.7	0.711	–	0.664	0.729	0.679	1.03	–	1.07	1.02	0.993	0.594	–	0.625	0.61	0.496
